Data: patent US7091351B2, “Vanadium compounds for treating cancer” (Parker Hughes Institute, priority 1998, dated 2006)

Assays:
Format in all cases: cell-based, human
NALM-6 cells = assay: MTT cytotoxicity assay of oxovanadium(IV) compounds, NALM-6; details: 48 hr
Method: (§1) The cytotoxicity of oxovanadium (W) complexes listed in Table 6 were tested against 9 different human cancer cell lines was performed using the MTT (3-[4,5-dimethylthiazol-2-yl]-2,5-diphenyl tetrazolium bromide) assay (Boehringer Mannheim Corp., Indianapolis, Ind.) as described previously (20). Briefly, exponentially growing tumor cells were seeded into a 96-well plate at a density of 4×10^4cells/well and incubated with medium containing the oxovanadium(IV) compounds concentrations ranging from 0.1 to 250 μM for 48 hours at 37° C. in a humidified 5% CO2 atmosphere. Triplicate wells were used for each treatment. To each well, 10 μl of MTT (0.5 mg/ml final concentration) was added and the plates were incubated at 37° C. for 4 hours to allow MTT to form formazan crystals by reacting with metabolically active cells . The formazan crystals were solubilized overnight at 37° C. in a solution containing 10% SDS in 0.01 M HCl. The absorbence of each well was measured in a microplate reader (Labsystems) at 540 nm and a reference wavelength of 690 nm. To translate the OD540 values into the number of live cells in each well, the OD540 values were compared to those on standard OD540—versus—cell number curves generated for each cell line. The percent survival was calculated using the formula: % survival=Live cell number[test]/Live cell number [control]×100. The IC50 values were calculated by non-linear regression analysis using an Graphpad Prism software version 2.0 (Graphpad Software, Inc., San Diego, Calif.).

MOLT-3 cells = assay: MTT cytotoxicity assay of oxovanadium(IV) compounds, MOLT-3; details: 48 hr
Method: as §1

[1] = system: HS445 Hodgkin's lymphoma cells; assay: MTT cytotoxicity assay of oxovanadium(IV) compounds, HS445; details: 48 hr
Method: as §1

HL-60 cells = assay: MTT cytotoxicity assay of oxovanadium(IV) compounds, HL-60; details: 48 hr
Method: as §1

[2] = system: U266BL multiple myeloma cells; assay: MTT cytotoxicity assay of oxovanadium(IV) compounds, U266BL; details: 48 hr
Method: as §1

[3] = system: ARH77 multiple myeloma cells; assay: MTT cytotoxicity assay of oxovanadium(IV) compounds, ARH77; details: 48 hr
Method: as §1, with “Briefly, exponentially growing tumor cells were seeded into a 96-well plate at a density of 4×10^4cells/well and incubated with medium containing the oxovanadium(IV) compounds concentrations ranging from 0.1 to 250 μM for 48 hours at 37° C. in a humidified 5% CO2 atmosphere.” left out

[4] = system: HS-SULTAN multiple myeloma cells; assay: MTT cytotoxicity assay of oxovanadium(IV) compounds, HS-SULTAN; details: 48 hr
Method: as §1

[5] = system: 833-K testicular cancer cells; assay: Cytotoxic activity of oxovanadium(IV) compounds, 833-K; details: read-out: Cytotoxic Activity 833-K
Method: as §1

[6] = system: 64cp5 testicular cancer cells; assay: Cytotoxic activity of oxovanadium(IV) compounds, 64cp5; details: read-out: Cytotoxic Activity 64cp5
Method: as §1

[7] = system: Tera-2 testicular cancer cells; assay: Cytotoxic activity of oxovanadium(IV) compounds, TERA-2; details: read-out: Cytotoxic Activity TERA-2
Method: as §1

[8] = system: NTD1 testicular cancer cells; assay: Cytotoxic activity of oxovanadium(IV) compounds, NTD1; details: read-out: Cytotoxic Activity NTD1
Method: as §1

U373 glioblastoma cells = assay: Cytotoxic activity of oxovanadium(IV) compounds, U373; details: read-out: Cytotoxic Activity U373
Method: as §1

BT20 breast cancer cells = assay: Cytotoxic activity of oxovanadium(IV) compounds, BT20; details: read-out: Cytotoxic Activity BT20
Method: as §1

[9] = system: PC3 prostate cancer cells; assay: Cytotoxic activity of oxovanadium(IV) compounds, PC3; details: read-out: Cytotoxic Activity PC3
Method: as §1

Row | Compound | IC50 (NALM-6 cells) | IC50 (MOLT-3 cells) | IC50 [1] | IC50 (HL-60 cells) | IC50 [2] | IC50 [3] | IC50 [4] | IC50 [5] | IC50 [6] | IC50 [7] | IC50 [8] | IC50 (U373 glioblastoma cells) | IC50 (BT20 breast cancer cells) | IC50 [9]
1 | (diaqua)(2,2′-bipyrimidine)oxovanadium(IV) sulfate [Compound 38] | 12.1 ± 1.6 µM | 27.7 ± 2.5 µM | 96.5 ± 8.6 µM | > 100 µM | 91.2 ± 9.9 µM | > 100 µM | > 100 µM | > 100 µM | > 100 µM | 74.3 µM | > 100 µM | > 100 µM | > 100 µM | 
2 | (diaqua) (1,10-phenanthroline)oxovanadium(IV) sulfate [Compound 26] | 3.4 ± 0.2 µM | 2.7 ± 0.2 µM | 6.3 ± 1.8 µM | 3.2 ± 1.1 µM | 3.5 ± 0.5 µM | 15.6 ± 3.2 µM | 11.2 ± 2.2 µM | 12.8 µM | 8.5 µM | > 100 µM | > 100 µM | 7.7 µM | 6.6 µM | 11.2 µM
3 | bis(2,2′-bipyridyl)sulfatooxovanadium(IV) [Compound 35] | 15.5 ± 3.8 µM | 14.2 ± 3.8 µM | 21.6 ± 4.3 µM | 31.4 ± 6.9 µM | 32.1 ± 5.2 µM | 26.8 ± 5.4 µM | 35.4 ± 3.3 µM | 96.2 µM | > 100 µM | > 100 µM | > 100 µM | > 100 µM | 70.8 µM | 56.2 µM
4 | bis(4,4′-dimethyl-2,2′-bipyridyl) sulfatooxovanadium(IV) [Compound 37] | 3.9 ± 0.3 µM | 4.8 ± 0.3 µM | 12.6 ± 3.3 µM | 28.4 ± 3.8 µM | 13.3 ± 5.1 µM | 58.3 ± 6.8 µM | 11.4 ± 2.2 µM | 34.9 µM | > 100 µM | > 100 µM | > 100 µM | 25.6 µM | 15.7 µM | 
5 | bis(5-chloro-1,10-phenanthroline)sulfatooxovanadium(IV) [Compound 31] | 1.6 ± 0.03 µM | 2.1 ± 0.2 µM | 5.2 ± 1.1 µM | 5.3 ± 1.8 µM | 3.7 ± 1.1 µM |  | 5.8 ± 0.6 µM | 4.6 µM | > 100 µM | 24.2 µM | 50.1 µM | 6.3 µM | 5.4 µM | 4.6 µM
6 | bis(1,10-phenanthroline)sulfatooxovanadium(IV) [Compound 27] | 0.97 ± 0.1 µM | 1.4 ± 0.04 µM | 5.8 ± 1.2 µM | 4.6 ± 1.4 µM | 2.2 ± 0.6 µM | 3.3 ± 0.8 µM | 4.4 ± 0.8 µM | 7.5 µM | 18.5 µM | 37.6 µM | > 100 µM | 6.8 µM | 7.2 µM | 10.8 µM
7 | CC(=O)c1cc(Br)ccc1[O][V](=[O])[O]c1ccc(Br)cc1C(C)=O [Compound 40, bis(5′-bromo-2′-hydroxyacetophenone)oxovanadium(IV)] | 17.4 ± 0.9 µM | 41.8 ± 3.9 µM | 96.5 ± 6.4 µM | > 100 µM | 98.1 ± 6.7 µM | > 100 µM | 78.4 ± 5.8 µM | > 100 µM | > 100 µM | 35.4 µM | > 100 µM | > 100 µM | > 100 µM | 
